Measurements published in ChEMBL document CHEMBL1201862, “PubChem BioAssay data set” (2004).
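Following 48 hours of exposure in 96-well plates, responses at five concentrations were used to interpolate endpoints linearly. Abbreviation: GI50, concentration required for 50% inhibition of growth.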 Active and inactive are the calls of the source. Cut-off read from the data, not from the text of the source: active = GI50 up to about 1.1 µM and inactive = higher.

Assays:
Test in all cases: inhibition of tumour cell growth, NCI panel, 48 h
KM12 = tested on: KM12
K562 = tested on: K562
IGROV-1 = tested on: IGROV-1
CCRF-CEM = tested on: CCRF-CEM
HOP-92 = tested on: HOP-92
NCI-H522 = tested on: NCI-H522
M14 = tested on: M14
HT-29 = tested on: HT-29
MOLT-4 = tested on: MOLT-4
SNB-75 = tested on: SNB-75
ACHN = tested on: ACHN
UACC-257 = tested on: UACC-257
RPMI-8226 = tested on: RPMI-8226
A549 = tested on: A549
SF-539 = tested on: SF-539
OVCAR-5 = tested on: OVCAR-5
EKVX = tested on: EKVX
OVCAR-8 = tested on: OVCAR-8
SK-MEL-5 = tested on: SK-MEL-5
DU-145 = tested on: DU-145

Measured: GI50

CC1(C)OCC(COC(=O)NCn2cc(-c3ccccc3)nn2)O1 (stereo not given)
inactive: KM12 > 100 µM | K562 > 100 µM | IGROV-1 > 100 µM | CCRF-CEM > 100 µM | HOP-92 > 100 µM | NCI-H522 > 100 µM | M14 > 100 µM | HT-29 > 100 µM | MOLT-4 > 100 µM | SNB-75 > 100 µM | ACHN > 100 µM | UACC-257 > 100 µM | RPMI-8226 > 100 µM | A549 > 100 µM | SF-539 > 100 µM | OVCAR-5 > 100 µM | EKVX > 100 µM | OVCAR-8 > 100 µM | SK-MEL-5 > 100 µM | DU-145 > 100 µM

COc1cccc2c1C(=O)c1c(O)c3c(c(O)c1C2=O)C[C@@](O)(C(C)=O)C[C@@H]3OC1CC(N(C)C)C(O)C(C)O1 (stereo not given in full)
active: KM12 0.00485 µM | K562 0.00318 µM | IGROV-1 0.00447 µM | CCRF-CEM 0.00412 µM | HOP-92 0.084 µM | NCI-H522 0.0046 µM | M14 0.00439 µM | HT-29 0.00356 µM | MOLT-4 0.00309 µM | SNB-75 0.00346 µM | ACHN 0.00337 µM | UACC-257 0.00555 µM | RPMI-8226 0.0113 µM | A549 0.00617 µM | SF-539 0.00417 µM | OVCAR-5 0.00577 µM | EKVX 0.00485 µM | OVCAR-8 0.00405 µM | SK-MEL-5 0.00236 µM | DU-145 0.000785 µM

Cc1cc(O)c2cc3c(O)c(O)ccc3cc2c1
active: KM12 0.561 µM | K562 1.04 µM | NCI-H522 0.789 µM | MOLT-4 1.03 µM | SNB-75 0.488 µM | RPMI-8226 0.326 µM | SF-539 0.822 µM | OVCAR-8 0.743 µM | SK-MEL-5 0.243 µM
inactive: IGROV-1 1.51 µM | CCRF-CEM 1.27 µM | HOP-92 2.61 µM | M14 2.86 µM | HT-29 2.54 µM | ACHN 1.77 µM | UACC-257 3.2 µM | A549 1.14 µM | OVCAR-5 3.17 µM | EKVX 2.12 µM | DU-145 3.91 µM

CN(/N=C/c1ccc(Cl)c(Cl)c1)C1=NCCCCN1
inactive: KM12 19.6 µM | K562 21.4 µM | IGROV-1 52.6 µM | CCRF-CEM 31 µM | HOP-92 18.9 µM | NCI-H522 17.8 µM | M14 15.4 µM | HT-29 29.2 µM | MOLT-4 21.8 µM | SNB-75 50.2 µM | ACHN 44.6 µM | UACC-257 22.6 µM | RPMI-8226 27.9 µM | A549 62.4 µM | SF-539 29.3 µM | OVCAR-5 27.9 µM | EKVX > 100 µM | OVCAR-8 72.3 µM | SK-MEL-5 14.6 µM | DU-145 91.2 µM

CC(C)(C)N1CC1CNC(=O)C(=O)NCC1CN1C(C)(C)C (stereo not given)
inactive: KM12 4.74 µM | K562 3.79 µM | IGROV-1 5.83 µM | HOP-92 9.51 µM | NCI-H522 1.31 µM | M14 3.61 µM | HT-29 2.45 µM | MOLT-4 1.57 µM | SNB-75 4.32 µM | ACHN 1.29 µM | UACC-257 5.05 µM | RPMI-8226 5.86 µM | A549 3.93 µM | SF-539 2.94 µM | OVCAR-5 2.62 µM | EKVX 14.2 µM | OVCAR-8 1.79 µM | SK-MEL-5 16.7 µM | DU-145 7.62 µM
active: CCRF-CEM 0.665 µM

CN(C)Cc1cc(C(=O)/C=C/c2ccc(O)cc2)cc(CN(C)C)c1O
inactive: KM12 24.4 µM | K562 29.5 µM | IGROV-1 45.4 µM | CCRF-CEM 24.8 µM | HOP-92 30.2 µM | NCI-H522 23.4 µM | M14 27.6 µM | HT-29 79.3 µM | MOLT-4 26.7 µM | SNB-75 26.7 µM | ACHN 20.9 µM | UACC-257 46.2 µM | RPMI-8226 17.9 µM | A549 > 100 µM | SF-539 55 µM | OVCAR-5 42.1 µM | EKVX 70 µM | OVCAR-8 81.7 µM | SK-MEL-5 18.5 µM | DU-145 53.6 µM

Clc1ccc(/C=C/c2nc3ccccc3s2)cc1Cl
inactive: KM12 81.1 µM | K562 > 100 µM | IGROV-1 16.9 µM | CCRF-CEM > 100 µM | HOP-92 18.9 µM | NCI-H522 > 100 µM | M14 36.5 µM | HT-29 > 100 µM | MOLT-4 > 100 µM | SNB-75 12.8 µM | ACHN 29.4 µM | UACC-257 > 100 µM | RPMI-8226 41.7 µM | A549 57.8 µM | SF-539 91.8 µM | OVCAR-5 80.7 µM | EKVX 51.8 µM | OVCAR-8 47.8 µM | SK-MEL-5 27.2 µM | DU-145 > 100 µM

COC(=O)C1=CSC2(S1)C(C(=O)OC)=CSc1c2ssc1=O (stereo not given)
active: CCRF-CEM 0.762 µM
inactive: KM12 3.9 µM | K562 1.95 µM | IGROV-1 1.66 µM | HOP-92 2.07 µM | NCI-H522 1.49 µM | M14 2.5 µM | HT-29 1.81 µM | MOLT-4 1.97 µM | SNB-75 3.22 µM | ACHN 1.87 µM | UACC-257 1.87 µM | RPMI-8226 1.55 µM | A549 7.43 µM | SF-539 1.57 µM | OVCAR-5 8.15 µM | EKVX 5.98 µM | OVCAR-8 2.34 µM | SK-MEL-5 2.24 µM | DU-145 1.73 µM

c1cc2nnc1SCCSCCCSCCS2
inactive: KM12 > 100 µM | K562 > 100 µM | IGROV-1 > 100 µM | CCRF-CEM > 100 µM | HOP-92 46.5 µM | NCI-H522 > 100 µM | M14 > 100 µM | HT-29 > 100 µM | MOLT-4 > 100 µM | SNB-75 5.83 µM | ACHN > 100 µM | UACC-257 > 100 µM | RPMI-8226 > 100 µM | A549 > 100 µM | SF-539 20 µM | OVCAR-5 > 100 µM | EKVX > 100 µM | OVCAR-8 > 100 µM | SK-MEL-5 > 100 µM | DU-145 2.86 µM

CCCCCCCCCCCCCCCCCC(=O)Nc1ccn(C2OC(CO)C(O)C2O)c(=O)n1 (stereo not given)
active: CCRF-CEM 0.097 µM | MOLT-4 0.343 µM
inactive: KM12 > 65.9 µM | K562 7.67 µM | IGROV-1 39 µM | HOP-92 58.1 µM | NCI-H522 5.04 µM | M14 14.2 µM | HT-29 20.1 µM | SNB-75 52.6 µM | ACHN 4.74 µM | UACC-257 > 100 µM | RPMI-8226 31.6 µM | A549 2.99 µM | SF-539 > 76.6 µM | OVCAR-5 > 70.5 µM | EKVX > 100 µM | OVCAR-8 7.48 µM | SK-MEL-5 47.9 µM | DU-145 10.7 µM

Oc1cc(-c2ccccc2)cn2c1nc1ccccc12
active: K562 0.525 µM | NCI-H522 0.243 µM | M14 0.9 µM | SK-MEL-5 0.476 µM
inactive: KM12 1.5 µM | IGROV-1 1.43 µM | CCRF-CEM 3.4 µM | HOP-92 > 25.5 µM | HT-29 8.63 µM | MOLT-4 3.44 µM | SNB-75 > 36.3 µM | ACHN 6.41 µM | UACC-257 > 63.5 µM | RPMI-8226 2.3 µM | A549 1.73 µM | SF-539 2.59 µM | OVCAR-5 > 100 µM | EKVX > 94.2 µM | OVCAR-8 2.42 µM | DU-145 4.55 µM

Nc1ccc(S(=O)(=O)NCc2nccs2)cc1
inactive: KM12 20.9 µM | K562 23.5 µM | IGROV-1 23.4 µM | CCRF-CEM 18.2 µM | HOP-92 18.8 µM | NCI-H522 16.6 µM | M14 18.2 µM | HT-29 16.7 µM | MOLT-4 23.2 µM | SNB-75 23.2 µM | ACHN 23.4 µM | UACC-257 17.7 µM | RPMI-8226 25.8 µM | A549 27.9 µM | SF-539 19.1 µM | OVCAR-5 17.9 µM | EKVX 17.3 µM | OVCAR-8 32.7 µM | SK-MEL-5 15.8 µM | DU-145 29 µM

C[N+](C)(C)CC1Cc2ccccc2C1=O (stereo not given)
inactive: KM12 > 10 µM | K562 1.4 µM | IGROV-1 > 10 µM | CCRF-CEM 1.66 µM | HOP-92 3.91 µM | NCI-H522 2.36 µM | M14 2.75 µM | HT-29 6.38 µM | MOLT-4 1.71 µM | SNB-75 > 10 µM | ACHN > 10 µM | UACC-257 > 10 µM | RPMI-8226 1.48 µM | A549 > 10 µM | SF-539 > 10 µM | OVCAR-5 > 10 µM | EKVX > 10 µM | OVCAR-8 1.89 µM | SK-MEL-5 > 10 µM | DU-145 > 10 µM

OC1(c2ccc(Cl)cc2)c2ccccc2C2=Nc3ccccc3CN21 (stereo not given)
inactive: KM12 28 µM | K562 > 100 µM | IGROV-1 39.2 µM | CCRF-CEM > 65.9 µM | HOP-92 > 60.3 µM | NCI-H522 25.1 µM | M14 > 100 µM | HT-29 14.8 µM | MOLT-4 61.8 µM | SNB-75 17.8 µM | ACHN 8.59 µM | UACC-257 > 100 µM | RPMI-8226 33.4 µM | A549 12.7 µM | SF-539 39.6 µM | OVCAR-5 > 75.2 µM | EKVX > 45.2 µM | OVCAR-8 13.2 µM | SK-MEL-5 > 46.1 µM | DU-145 36.2 µM
